In the first data set the test system is HCT-116. Briefly: Cytotoxicity against human HCT116 cells overexpressing GST-Pi assessed as inhibition of cell viability at 10 uM after 48 hrs by MTT assay relative to control. It is filed as functional. Particulars: HCT-116, 48 h.
Consider `CC(=O)N1N=C(c2cccc(Oc3cc(O/N=[N+](\[O-])N4CCOCC4)c([N+](=O)[O-])cc3[N+](=O)[O-])c2)CC1c1ccc(N(C)C)cc1` (stereo not given), for which the inhibition at 10 µM amounted to 78.3%.

Turning to `COc1ccc(C2CC(c3cccc(Oc4cc(O/N=[N+](\[O-])N5CCOCC5)c([N+](=O)[O-])cc4[N+](=O)[O-])c3)=NN2C(C)=O)cc1` (stereo not given), the inhibition at 10 µM stood at 79.9%.

The next data set concerns MDA-MB-231. Description: Antiproliferative activity against human MDA-MB-231 cells after 48 hrs by MTT assay relative to control. It is filed as functional, cell-based. The note with it: MDA-MB-231, 48 h.
Take `CC(=O)N1N=C(c2cccc(Oc3cc(O/N=[N+](\[O-])N4CCOCC4)c([N+](=O)[O-])cc3[N+](=O)[O-])c2)CC1c1ccc(N(C)C)cc1` (stereo not given): 2.9 µM corresponded to half-maximal inhibition (IC50).

The compound `COc1ccc(C2CC(c3cccc(Oc4cc(O/N=[N+](\[O-])N5CCOCC5)c([N+](=O)[O-])cc4[N+](=O)[O-])c3)=NN2C(C)=O)cc1` (stereo not given) showed an IC50 of 2.11 µM.

A further data set deals with HCT-116. Briefly: Antiproliferative activity against human HCT116 cells after 48 hrs by MTT assay relative to control. It is filed as functional, cell-based. The note with it: HCT-116, 48 h.
The compound `CC(=O)N1N=C(c2cccc(Oc3cc(O/N=[N+](\[O-])N4CCOCC4)c([N+](=O)[O-])cc3[N+](=O)[O-])c2)CC1c1ccc(N(C)C)cc1` (stereo not given) showed an IC50 of 2.7 µM.

The compound `COc1ccc(C2CC(c3cccc(Oc4cc(O/N=[N+](\[O-])N5CCOCC5)c([N+](=O)[O-])cc4[N+](=O)[O-])c3)=NN2C(C)=O)cc1` (stereo not given) displayed an IC50 of 5.58 µM.

The test system of a further data set is A549. Description: Antiproliferative activity against human A549 cells after 48 hrs by MTT assay relative to control. The note with it: A549, 48 h. It is filed as functional, cell-based.
`CC(=O)N1N=C(c2cccc(Oc3cc(O/N=[N+](\[O-])N4CCOCC4)c([N+](=O)[O-])cc3[N+](=O)[O-])c2)CC1c1ccc(N(C)C)cc1` (stereo not given) gave an IC50 of 1.97 µM.

The compound `COc1ccc(C2CC(c3cccc(Oc4cc(O/N=[N+](\[O-])N5CCOCC5)c([N+](=O)[O-])cc4[N+](=O)[O-])c3)=NN2C(C)=O)cc1` (stereo not given) showed an IC50 of 2.86 µM.

Another data set deals with U2OS. Briefly: Antiproliferative activity against human U2OS cells after 48 hrs by MTT assay relative to control. The data set is classed as functional, cell-based.
Settings: not given
`CC(=O)N1N=C(c2cccc(Oc3cc(O/N=[N+](\[O-])N4CCOCC4)c([N+](=O)[O-])cc3[N+](=O)[O-])c2)CC1c1ccc(N(C)C)cc1` (stereo not given) yielded an IC50 of 2.46 µM.

As to `COc1ccc(C2CC(c3cccc(Oc4cc(O/N=[N+](\[O-])N5CCOCC5)c([N+](=O)[O-])cc4[N+](=O)[O-])c3)=NN2C(C)=O)cc1` (stereo not given), the IC50 is 3.69 µM.

A further data set concerns MCF-10A. Briefly: Antiproliferative activity against human MCF10A cells after 48 hrs by MTT assay relative to control.
Settings: not given
The data set is classed as cell-based.
`CC(=O)N1N=C(c2cccc(Oc3cc(O/N=[N+](\[O-])N4CCOCC4)c([N+](=O)[O-])cc3[N+](=O)[O-])c2)CC1c1ccc(N(C)C)cc1` (stereo not given) showed an IC50 of 16.4 µM.

In the case of `COc1ccc(C2CC(c3cccc(Oc4cc(O/N=[N+](\[O-])N5CCOCC5)c([N+](=O)[O-])cc4[N+](=O)[O-])c3)=NN2C(C)=O)cc1` (stereo not given), the IC50 was determined as 12.9 µM.

Test system in a further data set: not listed separately
Briefly: Selectivity ratio of IC50 for human MCF10A cells to IC50 for human MDA-MB-231 cells. It is filed as toxicity. Particulars: MCF10A cells versus MDA-MB-231 cells, read-out: Ratio IC50.
Regarding `CC(=O)N1N=C(c2cccc(Oc3cc(O/N=[N+](\[O-])N4CCOCC4)c([N+](=O)[O-])cc3[N+](=O)[O-])c2)CC1c1ccc(N(C)C)cc1` (stereo not given), the selectivity ratio came out at 5.6.

Regarding `COc1ccc(C2CC(c3cccc(Oc4cc(O/N=[N+](\[O-])N5CCOCC5)c([N+](=O)[O-])cc4[N+](=O)[O-])c3)=NN2C(C)=O)cc1` (stereo not given), the selectivity ratio came to 6.1.

Test system in a further data set: not listed separately
Description: Selectivity ratio of IC50 for human HCT116 cells to IC50 for human MDA-MB-231 cells. The data set is classed as functional.
Settings: not given
Take `CC(=O)N1N=C(c2cccc(Oc3cc(O/N=[N+](\[O-])N4CCOCC4)c([N+](=O)[O-])cc3[N+](=O)[O-])c2)CC1c1ccc(N(C)C)cc1` (stereo not given): the “Ratio IC50” value is recorded as 0.9.

Consider `COc1ccc(C2CC(c3cccc(Oc4cc(O/N=[N+](\[O-])N5CCOCC5)c([N+](=O)[O-])cc4[N+](=O)[O-])c3)=NN2C(C)=O)cc1` (stereo not given), for which the “Ratio IC50” value is on record as 2.6.

Test system in the next data set: not listed separately
Description: Selectivity ratio of IC50 for human A549 cells to IC50 for human MDA-MB-231 cells. It is filed as functional.
Settings: not given
Consider `CC(=O)N1N=C(c2cccc(Oc3cc(O/N=[N+](\[O-])N4CCOCC4)c([N+](=O)[O-])cc3[N+](=O)[O-])c2)CC1c1ccc(N(C)C)cc1` (stereo not given), for which the “Ratio IC50” value came to 0.7.

For the compound `COc1ccc(C2CC(c3cccc(Oc4cc(O/N=[N+](\[O-])N5CCOCC5)c([N+](=O)[O-])cc4[N+](=O)[O-])c3)=NN2C(C)=O)cc1` (stereo not given), the “Ratio IC50” value is on record as 1.3.

Test system in a further data set: not listed separately
Description: Selectivity ratio of IC50 for human U2OS cells to IC50 for human MDA-MB-231 cells. It is filed as functional.
Settings: not given
For `CC(=O)N1N=C(c2cccc(Oc3cc(O/N=[N+](\[O-])N4CCOCC4)c([N+](=O)[O-])cc3[N+](=O)[O-])c2)CC1c1ccc(N(C)C)cc1` (stereo not given), the “Ratio IC50” value worked out at 0.8.

As to `COc1ccc(C2CC(c3cccc(Oc4cc(O/N=[N+](\[O-])N5CCOCC5)c([N+](=O)[O-])cc4[N+](=O)[O-])c3)=NN2C(C)=O)cc1` (stereo not given), the “Ratio IC50” value is listed as 1.7.

For the next data set, the target named is T1, Glutathione S-transferase P (Homo sapiens, UniProt P09211). Briefly: Prodrug activation in human HCT116 cells assessed as GST-Pi-mediated NO release at 5 uM by nitrate reductase assay. It is filed as cell-based.
T1 sequence (P09211 whole entry): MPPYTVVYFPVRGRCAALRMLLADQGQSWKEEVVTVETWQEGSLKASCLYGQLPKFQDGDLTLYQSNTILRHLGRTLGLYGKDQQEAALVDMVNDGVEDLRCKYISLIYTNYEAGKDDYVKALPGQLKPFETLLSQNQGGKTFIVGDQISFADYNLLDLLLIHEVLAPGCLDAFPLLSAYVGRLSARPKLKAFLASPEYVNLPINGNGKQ
Settings: not given
In the case of `CC(=O)N1N=C(c2cccc(Oc3cc(O/N=[N+](\[O-])N4CCOCC4)c([N+](=O)[O-])cc3[N+](=O)[O-])c2)CC1c1ccc(N(C)C)cc1` (stereo not given), the Drug metabolism result is listed as “Dose-dependent effect”.

With `COc1ccc(C2CC(c3cccc(Oc4cc(O/N=[N+](\[O-])N5CCOCC5)c([N+](=O)[O-])cc4[N+](=O)[O-])c3)=NN2C(C)=O)cc1` (stereo not given), the Drug metabolism result is given as “Dose-dependent effect”.

The species entered for another data set is Homo sapiens. Description: Inhibition of MDR in human MCF7/ADR cells assessed as potentiation of adriamycin-induced antiproliferative activity by measuring fold reduction in adriamycin IC50 at 10 uM after 48 hrs by MTT assay. The data set is classed as cell-based.
Settings: not given
Turning to `CC(=O)N1N=C(c2cccc(Oc3cc(O/N=[N+](\[O-])N4CCOCC4)c([N+](=O)[O-])cc3[N+](=O)[O-])c2)CC1c1ccc(N(C)C)cc1` (stereo not given), the fold change (FC) worked out at 33.4.

For `COc1ccc(C2CC(c3cccc(Oc4cc(O/N=[N+](\[O-])N5CCOCC5)c([N+](=O)[O-])cc4[N+](=O)[O-])c3)=NN2C(C)=O)cc1` (stereo not given), the fold change (FC) worked out at 56.6.

The target of the next data set is T1, Glutathione S-transferase P. Briefly: Prodrug activation in human HCT116 cells assessed as GST-Pi-mediated NO release at 5 uM after 24 hrs in presence of NO scavenger carboxy-PTIO by nitrate reductase assay. The data set is classed as cell-based.
Settings: not given
For the compound `CC(=O)N1N=C(c2cccc(Oc3cc(O/N=[N+](\[O-])N4CCOCC4)c([N+](=O)[O-])cc3[N+](=O)[O-])c2)CC1c1ccc(N(C)C)cc1` (stereo not given), the Drug metabolism entry was “Metabolite_Notdetected”.

The target is the same in the next data set. Briefly: Prodrug activation in human HCT116 cells assessed as GST-Pi-mediated NO release at 5 uM after 24 hrs in presence of GST-Pi inhibitor etacrynic acid by nitrate reductase assay. It is filed as cell-based.
Settings: not given
With `CC(=O)N1N=C(c2cccc(Oc3cc(O/N=[N+](\[O-])N4CCOCC4)c([N+](=O)[O-])cc3[N+](=O)[O-])c2)CC1c1ccc(N(C)C)cc1` (stereo not given), the Drug metabolism result is listed as “Metabolite_Notdetected”.

Test system in a further data set: not listed separately
Description: Cytotoxicity against ADR-sensitive human MCF7 cells assessed as inhibition of cell viability at 10 uM after 48 hrs by MTT assay relative to control. It is filed as cell-based. The note with it: read-out: INH.
Turning to `CC(=O)N1N=C(c2cccc(Oc3cc(O/N=[N+](\[O-])N4CCOCC4)c([N+](=O)[O-])cc3[N+](=O)[O-])c2)CC1c1ccc(N(C)C)cc1` (stereo not given), the cytotoxicity at 48 h, 10 µM came to 21.9%.

On to `COc1ccc(C2CC(c3cccc(Oc4cc(O/N=[N+](\[O-])N5CCOCC5)c([N+](=O)[O-])cc4[N+](=O)[O-])c3)=NN2C(C)=O)cc1` (stereo not given), for which the cytotoxicity at 48 h, 10 µM was 21.2%.

For another data set, the system named is MCF7. Description: Cytotoxicity against ADR-sensitive human MCF7 cells assessed as inhibition of cell viability after 48 hrs by MTT assay. The data set is classed as cell-based. The note with it: MCF7, 48 h.
For `CC(=O)N1N=C(c2cccc(Oc3cc(O/N=[N+](\[O-])N4CCOCC4)c([N+](=O)[O-])cc3[N+](=O)[O-])c2)CC1c1ccc(N(C)C)cc1` (stereo not given), the IC50 came out at 22 µM.

For the compound `COc1ccc(C2CC(c3cccc(Oc4cc(O/N=[N+](\[O-])N5CCOCC5)c([N+](=O)[O-])cc4[N+](=O)[O-])c3)=NN2C(C)=O)cc1` (stereo not given), the IC50 was determined as 31.9 µM.
